Experimental data taken from ChEMBL document CHEMBL4477199, “Design and synthesis of novel bicalutamide and enzalutamide derivatives as antiproliferative agents for the treatment of prostate cancer” (Eur J Med Chem, 2016).

Key:
[1] = 96 h
Description: Solubility in RPMI1640 culture medium at <30 uM incubated for 4 days by microscopic analysis

[2] = test system: DU-145; test: Antiproliferative activity against human DU145 cells after 96 hrs by propidium iodide staining based fluorescence 2D monolayer assay; type: functional, cell-based; details: DU-145, 96 h
[3] = test system: VCaP; test: Antiproliferative activity against human VCaP cells after 96 hrs by propidium iodide staining based fluorescence 2D monolayer assay; type: functional, cell-based
[4] = test system: LNCaP; test: Antiproliferative activity against human LNCAP cells after 96 hrs by propidium iodide staining based fluorescence 2D monolayer assay; type: functional, cell-based
[5] = 33000 µM
Description: Solubility in 100% DMSO at 33 mM at -20 degC

[6] = test system: CWR22R; test: Antiproliferative activity against human 22Rv1 cells after 96 hrs by propidium iodide staining based fluorescence 2D monolayer assay; type: functional, cell-based; details: 22Rv1, 96 h

| Compound | solubility [1] | IC50 [2] | IC50 [3] | IC50 [4] | solubility [5] | IC50 [6] |
| --- | --- | --- | --- | --- | --- | --- |
| CC(O)(CS(=O)(=O)c1ccc(F)cc1F)C(=O)Nc1ccc([N+](=O)[O-])cc1C(F)(F)F (stereo not given) | Soluble | 46.6 µM | 58 µM | 17.9 µM | Soluble | 30.2 µM |
| CC(O)(COc1ccc(F)cc1F)C(=O)Nc1ccc([N+](=O)[O-])c(C(F)(F)F)c1 (stereo not given) | Soluble | 22.4 µM | 20.9 µM | 10.1 µM | Soluble | 20.2 µM |
| CC(O)(CSc1ccc(C(F)(F)F)cn1)C(=O)Nc1ccc(C#N)c(C(F)(F)F)c1 (stereo not given) | Soluble | 84.1 µM | 89.3 µM | 80.7 µM | Soluble | 53.9 µM |
| CC(O)(CSc1ccc(C(F)(F)F)cc1)C(=O)Nc1ccc([N+](=O)[O-])cc1C(F)(F)F (stereo not given) | Soluble | 19.2 µM | 17.1 µM | 8.66 µM | Soluble | 14.6 µM |
| CC(O)(COc1ccc(F)c(F)c1)C(=O)Nc1ccc([N+](=O)[O-])c(C(F)(F)F)c1 (stereo not given) | Soluble | 21.6 µM | 18.9 µM | 14.5 µM | Soluble | 18.5 µM |
| CC(O)(COc1cccc(C(F)(F)F)c1)C(=O)Nc1ccc(C#N)cc1C(F)(F)F (stereo not given) | Soluble | 32.1 µM | 21.6 µM | 15.2 µM | Soluble | 18.7 µM |
| CC(O)(CSc1ccccc1C(F)(F)F)C(=O)Nc1ccc(C#N)cc1C(F)(F)F (stereo not given) | Soluble | 18.4 µM | 18.3 µM | 10.7 µM | Soluble | 11.6 µM |
| CC(O)(CSc1ccc(F)cc1)C(=O)Nc1ccc(C#N)cc1C(F)(F)F (stereo not given) | Soluble | 43.3 µM | 45.5 µM | 26.4 µM | Soluble | 30.1 µM |
| CC(O)(COc1ccc(OC(F)(F)F)cc1)C(=O)Nc1ccc(C#N)cc1C(F)(F)F (stereo not given) | Soluble | 34.6 µM | 22.4 µM | 27.7 µM | Soluble | 28 µM |
| CC(O)(CSc1ccc(F)cc1)C(=O)Nc1ccc([N+](=O)[O-])cc1C(F)(F)F (stereo not given) | Soluble | 26.4 µM | 21.1 µM | 11.9 µM | Soluble | 17.6 µM |
| CC1(C)C(=O)N(c2cccc(C(F)(F)F)c2)C(=O)N1c1ccc(C#N)cc1C(F)(F)F | Soluble | 100 µM | 100 µM | 18.3 µM | Soluble | 59.3 µM |
| CC(O)(COc1cccc(C(F)(F)F)c1)C(=O)Nc1ccc([N+](=O)[O-])cc1C(F)(F)F (stereo not given) | Soluble | 18.1 µM | 19.3 µM | 12.9 µM | Soluble | 15.2 µM |
| CC1(C)C(=O)N(c2cccc(C(F)(F)F)c2)C(=O)N1c1ccc(C(F)(F)F)cc1 | Soluble | 100 µM | 100 µM | 16.6 µM | Soluble | 92.5 µM |
| CC(O)(CS(=O)(=O)c1ccc(F)c(F)c1)C(=O)Nc1ccc([N+](=O)[O-])cc1C(F)(F)F (stereo not given) | Soluble | 48.1 µM | 37.3 µM | 19.5 µM | Soluble | 33.6 µM |
| C[C@](O)(CSc1ccc(F)cc1F)C(=O)Nc1ccc(C#N)c(C(F)(F)F)c1 | Soluble | 28.5 µM | 18.3 µM | 25.2 µM | Soluble | 17.2 µM |
| CC(O)(COc1ccccc1C(F)(F)F)C(=O)Nc1ccc(C(F)(F)F)cc1 (stereo not given) | Soluble | 26.4 µM | 11.5 µM | 6.98 µM | Soluble | 6.42 µM |
| C[C@](O)(CS(=O)(=O)c1cccc(C(F)(F)F)c1)C(=O)Nc1ccc(C#N)c(C(F)(F)F)c1 | Soluble | 45.2 µM | 39.9 µM | 13.2 µM | Soluble | 25.7 µM |
| CC(O)(CS(=O)(=O)c1ccccc1OC(F)(F)F)C(=O)Nc1ccc([N+](=O)[O-])cc1C(F)(F)F (stereo not given) | Soluble | 39 µM | 51.7 µM | 17.8 µM | Soluble | 28.8 µM |
| CC(O)(COc1ccc(C(F)(F)F)cn1)C(=O)Nc1ccc([N+](=O)[O-])c(C(F)(F)F)c1 (stereo not given) | Soluble | 100 µM | 100 µM | 36.5 µM | Soluble | 35.2 µM |
| CC(O)(COc1ccccc1OC(F)(F)F)C(=O)Nc1ccc(C#N)cc1C(F)(F)F (stereo not given) | Soluble | 27.1 µM | 43.9 µM | 33.8 µM | Soluble | 16.7 µM |
| C[C@](O)(CS(=O)(=O)c1ccc(F)cc1F)C(=O)Nc1ccc(C#N)c(C(F)(F)F)c1 | Soluble | 60.2 µM | 60.9 µM | 42.3 µM | Soluble | 42.2 µM |
| CC(O)(COc1ccccc1C(F)(F)F)C(=O)Nc1ccc(C#N)cc1C(F)(F)F (stereo not given) | Soluble | 33.2 µM | 21.9 µM | 14 µM | Soluble | 19.6 µM |
| CC(O)(CS(=O)(=O)c1ccc(F)cc1)C(=O)Nc1ccc([N+](=O)[O-])cc1C(F)(F)F (stereo not given) | Soluble | 60.7 µM | 58.2 µM | 38.6 µM | Soluble | 46.7 µM |
| CC(O)(CSc1ccc(OC(F)(F)F)cc1)C(=O)Nc1ccc([N+](=O)[O-])cc1C(F)(F)F (stereo not given) | Soluble | 69.6 µM | 100 µM | 100 µM | Soluble | 61.9 µM |
| CC(O)(CS(=O)(=O)c1ccc(C(F)(F)F)cc1)C(=O)Nc1ccc([N+](=O)[O-])cc1C(F)(F)F (stereo not given) | Soluble | 40.9 µM | 46.9 µM | 29.3 µM | Soluble | 25.4 µM |
| CC(O)(CS(=O)(=O)c1ccccc1C(F)(F)F)C(=O)Nc1ccc([N+](=O)[O-])cc1C(F)(F)F (stereo not given) | Soluble | 46.1 µM | 38.6 µM | 20.5 µM | Soluble | 28.3 µM |
| CC(O)(CSc1cc(C(F)(F)F)ccn1)C(=O)Nc1ccc([N+](=O)[O-])cc1C(F)(F)F (stereo not given) | Soluble | 14 µM | 17.4 µM | 5.52 µM | Soluble | 11.5 µM |
| CC(O)(CSc1ccc(C(F)(F)F)cc1)C(=O)Nc1ccc(C#N)c(C(F)(F)F)c1 (stereo not given) | Soluble | – | – | – | Soluble | – |
| C[C@](O)(CSc1ccccc1C(F)(F)F)C(=O)Nc1ccc(C#N)c(C(F)(F)F)c1 | – | 7.69 µM | 2.95 µM | 7.9 µM | – | 5.3 µM |
| CC(O)(CSc1ccc(C(F)(F)F)cc1)C(=O)Nc1ccc(C#N)cc1C(F)(F)F (stereo not given) | Soluble | – | – | – | Soluble | – |
